# Assay results from patent US8912338B2, “Pesticidal compositions” (Dow AgroSciences LLC, priority 2010, dated 2014).
# Experiments:
# [1] = tested on: Sweetpotato Whitefly (Bemisia tabaci); test: Insecticidal test for sweetpotato whitefly in foliar spray assay; format: in vivo; conditions: 200 ppm foliar spray on cotton plants infested with eggs, live nymphs counted after 8-9 days, Abbott's corrected % control, read-out: BEMITA % Ctrl @ 200 ppm
# Method: Cotton plants were used as test substrate and were grown in 3-inch pots and pruned until only 1 small (3-5 cm) true leaf remained. The plants were then placed in a room with whitefly ([…]) adults and allowed to be infested with eggs. After a 2-3 day egg-laying period, plants were taken from the adult whitefly room and the adults were removed from the leaves using compressed air delivered through a hand-held Devilbiss sprayer (23 psi). Plants infested with eggs (100-300 eggs per plant) were placed in a controlled-environment room for 5-6 days at 82° F. and 50% RH until approximately 50% egg hatch. Four cotton plants (4 replicates) were used for each treatment. Compounds (2 mg) were dissolved in 1 mL of acetone solvent, forming stock solutions of 2000 ppm. The stock solutions were diluted 10× with 0.025% Tween 20 in H2O to obtain the test solution of 200 ppm. A hand-held Devilbiss sprayer was used for spraying a solution to both sides of cotton leaf until runoff. Reference plants (solvent check) were sprayed with the diluent only. Treated plants were held in a holding room for 8-9 days at approximately 82° F. and 50% RH prior to grading. Evaluation was conducted by counting the number of live nymphs per plant under a microscope. Insecticidal activity data presented in Table 3 were generated by using Abbott's correction formula: Corrected%Control=100*(X-Y)/X • where X=No. of live nymphs on solvent check plants • Y=No. of live nymphs on treated plants […]
# [2] = tested on: Green Peach Aphid (Myzus persicae); test: Insecticidal test for green peach aphid in foliar spray assay; format: in vivo; conditions: 72 h, 200 ppm foliar spray on cabbage seedlings, live aphids counted after three days, Abbott's corrected % control, read-out: MYZUPE % Ctrl @ 200 ppm
# Method: Certain molecules disclosed in this document were tested against MYZUPE using procedures described in the following example. In the reporting of the results, the “MYZUPE, APHIGO and BEMITA Rating Table” was used (See Table Section).
# Cabbage seedlings grown in 3-inch pots, with 2-3 small (3-5 cm) true leaves, were used as test substrate. The seedlings were infested with 20-50 green peach aphids (wingless adult and nymph stage) one day prior to chemical application. Four pots with individual seedlings were used for each treatment. Compounds (2 mg) were dissolved in 2 mL of acetone/methanol (1:1) solvent, forming stock solutions of 1000 ppm. The stock solutions were diluted 5× with 0.025% Tween 20 in H2O to obtain the test solution at 200 ppm. A hand-held Devilbiss sprayer was used for spraying a solution to both sides of cabbage leaves until runoff. Reference plants (solvent check) were sprayed with the diluent only. Treated plants were held in a holding room for three days at approximately 25° C. and 40% relative humidity (RH) prior to grading. Evaluation was conducted by counting the number of live aphids per plant under a microscope. Insecticidal activity data presented in Table 3 were generated by using Abbott's correction formula: Corrected%Control=100*(X−Y)/X • where X=No. of live aphids on solvent check plants • Y=No. of live aphids on treated plants
# [3] = tested on: Cotton Aphid (Aphis gossypii); test: Insecticidal test for cotton aphid in a foliar spray assay; format: in vivo; conditions: 72 h, 200 ppm foliar spray on squash or cotton seedlings, live aphids counted after three days, Abbott's corrected % control, read-out: APHIGO % Ctrl @ 200 ppm
# Method: Squash or cotton seedlings with fully expanded cotyledon leaves were trimmed to one cotyledon per plant and infested with wingless adult and nymph stage cotton aphid (APHIGO) one day prior to chemical application. Each plant was examined before chemical application to ensure uniform infestation (ca. 30-70 aphids per plant). Compounds (2 mg) were dissolved in 2 mL of acetone/methanol (1:1) solvent, forming stock solutions of 1000 ppm. The stock solutions were diluted 5× with 0.025% Tween 20 in H2O to obtain a solution at 200 ppm. A hand-held Devilbiss aspirator type sprayer was used to apply the spray solutions until runoff to both sides of the squash cotyledon leaves. Four plants (4 replications) were used for each concentration of each compound. Reference plants (solvent check) were sprayed with the diluent only. Treated plants were held in a holding room for three days at approximately 25° C. and 40% RH before the number of live cotton aphids on each plant was recorded. Insecticidal activity data presented in Table 3 were generated by using Abbott's correction formula: Corrected%Control=100*(X−Y)/X • where X=No. of live aphids on solvent check plants • Y=No. of live aphids on treated plants
Structure (SMILES),melting point [°C],inhibition at 200 ppm [1] [%],inhibition at 200 ppm [2] [%],inhibition at 200 ppm [3] [%]
CCSCCC(=O)N(C)c1nnc(-c2cccnc2)s1 [Compound 2],70 to 72,0 to 80,80 to 100,80 to 100
CSCC(=O)N(C)c1nnc(-c2cccnc2)s1 [Compound 29],135 to 139,0 to 80,80 to 100,80 to 100
"CC(=O)CCC(=O)N(C)c1nnc(-c2cccnc2)s1 [Compound 49, N-methyl-4-oxo-N-[5-(3-pyridyl)-1,3,4-thiadiazol-2-yl]pentanamide]",146 to 147,0 to 80,0 to 80,80 to 100
"CN(C(=O)C(C)(C)C/S(C)=N/C#N)c1nnc(-c2cccnc2)s1 (stereo not shown) [Compound 39, N-2,2-trimethyl-3-(methyl-N-cyano-sulfiliminyl)-N-(5-(pyridin-3-yl)-1,3,4-thiadiazol-2-yl)propanamide]",42 to 52,0 to 80,80 to 100,80 to 100
CN(C(=O)OCC[S+](C)[O-])c1nnc(-c2cccnc2)s1 (stereo not shown) [Compound 51],170 to 172,0 to 80,80 to 100,80 to 100
CCS(=O)(=O)C(C)CC(=O)N(C)c1nnc(-c2cccnc2)s1 (stereo not shown) [Compound 43],175 to 177,< 0,0 to 80,80 to 100

# More lines, main results first:
melting point [°C],Structure (SMILES),inhibition at 200 ppm [1] [%],inhibition at 200 ppm [2] [%],inhibition at 200 ppm [3] [%]
144 to 147,CSCC1(C(=O)N(C)c2nnc(-c3cccnc3)s2)CC1 [Compound 44],< 0,80 to 100,80 to 100
89 to 91,"CSCC(C)(C)C(=O)N(C)c1nnc(-c2cccnc2)s1 [Compound 24, N-2,2-trimethyl-3-(methylthio)-N-(5-(pyridin-3-yl)-1,3,4-thiadiazol-2-yl)propanamide]",0 to 80,80 to 100,80 to 100
92 to 95,COCCCC(=O)N(C)c1nnc(-c2cccnc2)s1 [Compound 19],0 to 80,0 to 80,80 to 100
211 to 212,CSCCC(=O)Nc1nnc(-c2cccnc2)s1 [Compound 7],0 to 80,0 to 80,0 to 80
166 to 168,CN(C(=O)C1(C[S+](C)[O-])CC1)c1nnc(-c2cccnc2)s1 (stereo not shown) [Compound 45],0 to 80,80 to 100,80 to 100
87 to 92,CCSCC(=O)N(C)c1nnc(-c2cccnc2)s1 [Compound 8],< 0,80 to 100,80 to 100
92 to 97.5,COCCC(=O)N(C)c1nnc(-c2cccnc2)s1 [Compound 3],0 to 80,80 to 100,80 to 100
